Measurements reported in patent US20260144769A1, “4-PHENYLBUTYRATE RESTORED GABA UPTAKE AND REDUCED SEIZURES IN SLC6A1 VARIANT-MEDIATED DISORDERS” (Vanderbilt University, priority 2022, published 2026).

Columns and labels:
Test in all cases: 3H GABA uptake, HEK293T, mutant cDNA alone ("homozygous")
Assay type in all cases: cell-based
Details in all cases: PBA 2 mM, 24 hrs
[1] = target: T1, GAT-1 A288V (Rattus norvegicus, UniProt P23978, A288V)
T1 construct: The coding region of rGAT-1 was inserted into pEYFP-C1 (Clontech, Palo Alto, CA); expressed in transfected cells; host or cells: HEK293T cells (A4); astrocytes from corrected human iPSCs (A24)
Experimental: (§1) GABA uptake activity was measured by the high-throughput 3H radio-labeling GABA uptake on a liquid scintillator with QuantaSmart. […] HEK293T cells were transfected with the wildtype or the mutant GAT-1^YFP cDNAs alone for 48 hr. […] HEK293T cells were transfected with the wildtype GAT-1^YFP alone or in mixture of the wildtype or the mutant cDNAs for 48 hr. In the mixed condition, the ratio of the wildtype GAT-1 with pcDNA or the mutant cDNAs are 1:1 with the total cDNA amount of 0.5 μg. […] Both wt and the mutant were normalized to its own DMSO treated conditions. 966 stands for the wildtype treated with CI-966 (50 μM) while 711 stands for NNC-711 (35 μM). (N=4-7 different transfections. In FIG. 4A and FIG. 4B, *P<0.05, **P<0.01, ***p<0.001 vs. wt 0. In FIG. C and FIG. 4D, *P<0.05, **P<0.01, ***p<0.001 vs. its own DMSO treated. In FIG. 4C, ns stands for no significance. One-way analysis of variance (ANOVA) and Newman-Keuls test. Values were expressed as mean±S.E.M.
(§2) The plasmid cDNA encoding enhanced yellow fluorescent protein (EYFP)-tagged rat GAT-1 has been previously described. The coding region of rGAT-1 was inserted into pEYFP-C1 (Clontech, Palo Alto, CA). QuikChange Site-directed Mutagenesis kit was utilized to introduce the GAT-1 variants into a wildtype GAT-1 plasmid. The product was then amplified via polymerase chain reaction, transformed using DH5a competent cells, and plated. A clone was chosen and grown overnight. All the GAT-1 variants were confirmed by DNA sequencing. Both the wildtype and the variant cDNAs were prepared with Qiagen Maxiprep kit.
(§3) Human embryonic kidney cells were cultured as monolayers in 100 mm^2 dishes. Cells were cultured in Dulbecco's Modified Eagle's Medium supplemented with 10% FBS and 1% penicillin/streptomycin in 37° C. in 5% CO2/95% air. Cells were maintained in culture medium until appropriate confluency for experimentation.
(§4) Briefly, cells were cultured in […] dishes for 3 days before the GABA uptake experiment in DMEM with 10% fetal bovine serum and 1% penicillin/streptomycin. The cells were then transfected with equal amounts of the wildtype or the mutant GAT-1 cDNAs (1 μg) for each condition at 24 hrs or 48 hrs after plating. GABA uptake assay was carried out 48 hrs after transfection. The cells were incubated with preincubation solution for 15 min and then incubated with preincubation solution containing 1 μci/mL 3H GABA and 10 μM unlabeled GABA for 30 min at room temperature. After washing, the cells were lysed with 0.25 N NaOH for 1 hr. Glacial acetic acid was added, and lysates were then determined on a liquid scintillator with QuantaSmart. The flux of GABA (pmol/μg/min) was averaged with at least triplets for each condition at each transfection. The average counting was taken as n=1. The untransfected condition was taken as a baseline that was subtracted from both the wildtype and the mutant conditions. The pmol/μg/min in the mutant was then normalized to the wildtype from each experiment, which was arbitrarily taken as 100%. The protocols for GABA reuptake assay in cultured mouse astrocytes, neuron or iPSC derived cells were modified from the GABA uptake protocol on HEK 293T cells. GAT-1 inhibitors CL-966 and NNC-711 were applied each time to make sure the radioactive counts were specific.
(§5) The working solution was stored at 4° C.

[2] = target: T2, GAT-1 D410E (Rattus norvegicus, UniProt P23978, D410E)
T2 construct: The coding region of rGAT-1 was inserted into pEYFP-C1 (Clontech, Palo Alto, CA); expressed in transfected cells; host or cells: HEK293T cells (A7); astrocytes from corrected human iPSCs (A27)
Experimental: as §1, §2, §3, §4, §5

[3] = target: T3, GAT-1 G326R (Rattus norvegicus, UniProt P23978, G362R)
T3 construct: The coding region of rGAT-1 was inserted into pEYFP-C1 (Clontech, Palo Alto, CA); expressed in transfected cells; host or cells: HEK293T cells
Experimental: as §1, §2, §3, §4, §5

[4] = target: T4, GAT-1 S295L (Rattus norvegicus, UniProt P23978, S295L)
T4 construct: The coding region of rGAT-1 was inserted into pEYFP-C1 (Clontech, Palo Alto, CA); expressed in transfected cells; host or cells: HEK293T cells (A5); astrocytes from corrected human iPSCs (A25)
Experimental: as §1, §2, §3, §4, §5

[5] = target: T5, GAT-1 V125M (Rattus norvegicus, UniProt P23978, V125M)
T5 construct: The coding region of rGAT-1 was inserted into pEYFP-C1 (Clontech, Palo Alto, CA); expressed in transfected cells; host or cells: HEK293T cells (A3); astrocytes from corrected human iPSCs (A23)
Experimental: as §1, §2, §3, §4, §5

[6] = target: T6, GAT-1 W495X (Rattus norvegicus, UniProt P23978)
T6 construct: expressed in transfected cells; host or cells: HEK293T cells
Experimental: as §1, §2, §3, §4, §5

Compound: O=C(O)CCCc1ccccc1 [PBA, 4-phenylbutyric acid]
- GABA uptake normalized to its own DMSO treated condition [1]: 1.22±0.063
- GABA uptake normalized to its own DMSO treated condition [2]: 1.236±0.074
- GABA uptake normalized to its own DMSO treated condition [3]: 1.185±0.065
- GABA uptake normalized to its own DMSO treated condition [4]: 1.386±0.058
- GABA uptake normalized to its own DMSO treated condition [5]: 1.378±0.056
- GABA uptake normalized to its own DMSO treated condition [6]: 1.323±0.054
